Data published in patent US20230322724A1, “HETEROCYCLIC COMPOUNDS AS CBP/EP300 BROMODOMAIN INHIBITORS” (AURIGENE ONCOLOGY LIMITED, priority 2020, published 2023).
Where two headings read alike, the source gives them in different places.

Assays:
[1] = target: T1, recombinant CREBBP bromodomain (Homo sapiens, UniProt Q92793); assay: CBP TR-FRET displacement assay; format: binding; conditions: for IC50: dose-response, read-out: IC50 (group A, B, C)
T1 construct: recombinant CREBBP bromodomain obtained from BPS Bioscience, USA; purchased BPS Bioscience, USA
Outline: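 CREBBP bromodomain (50 nM) preincubated 30 min at room temperature with 500 nM biotinylated ligand in HEPES pH 7.5 buffer with TCEP, then 60 min with compound. Eu-anti-His/APC-streptavidin TR-FRET 665/615 nm ratio read; IC50 from sigmoidal dose-response fit.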

[2] = target: T2, recombinant BRD4 FL bromodomain (Homo sapiens, UniProt O60885); assay: BRD4 FL TR-FRET displacement assay; format: binding; conditions: for IC50: dose-response, read-out: IC50 (group A, B, C); for inhibition at 10 µM: read-out: % Inhibition (10 μM)
T2 construct: fused on or other part: 6xHis tag, inferred from detection with Mab ANTI 6HIS-XL665
Protocol: The potency of compounds to inhibit BRD4 FL enzyme was tested in a TR-FRET displacement assay using recombinant BRD4 FL bromodomain obtained In-house. The assay buffer was 50 mM HEPES (pH 7.5), 50 mM NaCl, 500 μM CHAPS. 10 nM of BRD4 FL & 300 nM of Biotinylated Acetyl histone H4 (Lys 5, 8, 12, 16) (Millipore, USA) was incubated at room temperature for 30 minutes, the reaction was initiated by adding the pre-incubated enzyme ligand mixture to the test compounds. After 30 min incubation, the reaction was stopped by the addition of stop mix containing 1 nM of Europium Streptavidin cryptate (Cisbio, USA) and 5 nM of Mab ANTI 6HIS-XL665 (Cisbio, USA) dilutes in assay buffer containing 2.4M Potassium Fluoride. Fluorescence emission of the samples at 665 and 615 nm were measured at an excitation of 340 nm and their ratio was plotted against the compound concentrations to generate dose-response curve. The percent inhibition of the test compounds is calculated using the ratio of enzyme activity controls.
Selected compounds of the present invention were screened in the above-mentioned assay procedures and IC50 values were determined by fitting the dose-response data to sigmoidal curve fitting equation using Graph pad prism software V7.

T1 sequence (Q92793 1085-1192 limits assumed): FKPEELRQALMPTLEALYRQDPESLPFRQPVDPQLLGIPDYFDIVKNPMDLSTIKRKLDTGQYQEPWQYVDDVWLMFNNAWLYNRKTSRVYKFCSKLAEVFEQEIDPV

| Structure (SMILES) | IC50 [1] | IC50 ([2]; BRD4 FL) | inhibition at 10 µM ([2]; BRD4 FL, compound at 10 μM) | inhibition at 10 µM ([1]; compound at 10 μM) | inhibition at 10 µM [2] |
| --- | --- | --- | --- | --- | --- |
| CC(=O)N1CCN(c2cc(N3CCOCC3)cc3c2cc(C)c(=O)n3C)c2cnc(-c3cnn(C)c3)cc21 [Example 162, 5-(1-Acetyl-7-(1-methyl-1H-pyrazol-4-yl)-2,3-dihydropyrido[3,4-b]pyrazin-4(1H)-yl)-1,3-dimethyl-7-morpholinoquinolin-2(1H)-one] | < 50 nM | 2010 to 5000 nM |  |  |  |
| Cc1cc2c(N3CCCc4cc(-c5cnn(C)c5)c(C(F)F)cc43)cc(C3CCOCC3)cc2n(C)c1=O [Example 179] | < 50 nM | 2010 to 5000 nM |  |  |  |
| Cc1cc2c(N3CCCc4ccc(C(F)F)cc43)nc(N3CCC(O)C3)cc2n(C)c1=O (stereo not drawn) [Example 230] | > 10 nM |  | 21% |  |  |
| CC1Cc2c(cc(N3CC[C@@H](O)C3)nc2N2CCCc3cc(-c4cnn(C)c4)c(C(F)F)cc32)N(C)C1=O (stereo partly drawn) [Example 243, 5-(7-(Difluoromethyl)-6-(1-methyl-1H-pyrazol-4-yl)-3,4-dihydroquinolin-1(2H)-yl)-7-((R)-3-hydroxypyrrolidin-1-yl)-1,3-dimethyl-3,4-dihydro-1,6-naphthyridin-2(1H)-one] | > 10 nM | 2010 to 5000 nM |  |  |  |
| CC(=O)N1CCC(c2cc(N3CCN(C)c4cc(-c5cnn(C)c5)ncc43)c3cc(C)c(=O)n(C)c3c2)CC1 [Example 153] | < 50 nM |  | 45% |  |  |
| CC(=O)N1CCN(c2cc3c(cc(C)c(=O)n3C)c(N3CCCc4cc(-c5cnn(C)c5)c(C(F)F)cc43)n2)CC1 [Example 200, 7-(4-Acetylpiperazin-1-yl)-5-(7-(difluoromethyl)-6-(1-methyl-1H-pyrazol-4-yl)-3,4-dihydroquinolin-1(2H)-yl)-1,3-dimethyl-1,6-naphthyridin-2(1H)-one] | < 50 nM | 2010 to 5000 nM |  |  |  |
| Cc1cc2c(N3CCN(C)c4cc(-c5cnn(C)c5)ncc43)cc(OCc3ncco3)cc2n(C)c1=O [Example 159] | 51 to 100 nM | 2010 to 5000 nM |  |  |  |
| Cc1cc2c(N3CCN(C)c4cc(-c5cnn(C)c5)ncc43)cccc2n(C)c1=O [Example 131] | > 10 nM |  | 52% |  |  |
| CNC(=O)CN1CCN(c2cc(N3CCOCC3)cc3c2cc(C)c(=O)n3C)c2cnc(-c3cnn(C)c3)cc21 [Example 165, 2-(4-(1,3-Dimethyl-7-morpholino-2-oxo-1,2-dihydroquinolin-5-yl)-7-(1-methyl-1H-pyrazol-4-yl)-3,4-dihydropyrido[3,4-b]pyrazin-1(2H)-yl)-N-methylacetamide] | < 50 nM |  | 51% |  |  |
| Cc1cc2c(N3CCN(C)c4cc(-c5cnn(C)c5)ncc43)cc(N3CCC4(COC4)C3)cc2n(C)c1=O [Example 150] | < 50 nM | 2010 to 5000 nM |  |  |  |
| COc1ccc(CN2CCN(c3cc(N4CCOCC4)cc4c3cc(C)c(=O)n4C)c3cnc(-c4cnn(C)c4)cc32)cc1 [Example 135] | 51 to 100 nM | 2010 to 5000 nM |  |  |  |
| Cc1cc2c(N3CCN(C)c4cc(-c5cnn(C)c5)ncc43)cc(N3CCOC(C)C3)cc2n(C)c1=O (stereo not drawn) [Example 147] | 51 to 100 nM |  | 66% |  |  |
| Cc1cc2c(N3CCCc4cc(-c5cnn(C)c5)c(C(F)F)cc43)nc(N3C4CCC3COC4)cc2n(C)c1=O [Example 218] | < 50 nM | 2010 to 5000 nM |  |  |  |
| Cc1cc2c(N3CCN(C(F)F)c4cc(-c5cnn(C)c5)ncc43)cc(N3CCOCC3)cc2n(C)c1=O [Example 163, 5-(1-(Difluoromethyl)-7-(1-methyl-1H-pyrazol-4-yl)-2,3-dihydropyrido[3,4-b]pyrazin-4(1H)-yl)-1,3-dimethyl-7-morpholinoquinolin-2(1H)-one] | > 10 nM |  |  |  | 16% |
| Cc1cc2c(N3CCCc4cc(-c5cnn(C)c5)c(C(F)F)cc43)nc(N3C[C@@H]4C[C@H]3CO4)cc2n(C)c1=O [Example 219] | < 50 nM | 2010 to 5000 nM |  |  |  |
| CCn1c(=O)c(C)cc2c(N3CCN(C)c4cc(-c5cnn(C)c5)c(C#N)cc43)cccc21 [Example 46] | > 10 nM | 2010 to 5000 nM |  | 98% |  |
| Cc1cc2c(N3CCN(C)c4cc(-c5cnn(C)c5)ncc43)cc(C(C)C)cc2n(C)c1=O [Example 151, 7-Isopropyl-1,3-dimethyl-5-(1-methyl-7-(1-methyl-1H-pyrazol-4-yl)-2,3-dihydropyrido[3,4-b]pyrazin-4(1H)-yl)quinolin-2(1H)-one] | 51 to 100 nM |  | 49% |  |  |
| COc1cc2c(cc(C)c(=O)n2C)c(N2CCCc3cc(-c4cnn(C)c4)c(C(F)F)cc32)n1 [Example 233, 5-(7-(Difluoromethyl)-6-(1-methyl-1H-pyrazol-4-yl)-3,4-dihydroquinolin-1(2H)-yl)-7-methoxy-1,3-dimethyl-1,6-naphthyridin-2(1H)-one] | 51 to 100 nM | 2010 to 5000 nM |  |  |  |
| Cc1cc2c(N3CCN(C)c4cc(-c5cnn(C)c5)ncc43)cc(N3CCS(=O)(=O)CC3)cc2n(C)c1=O [Example 148] | > 10 nM |  | 55% |  |  |
| Cc1cc2c(N3CCCc4cc(-c5cnn(C)c5)c(O)cc43)nc(N3CCC(O)C3)cc2n(C)c1=O (stereo not drawn) [Example 245, 5-(7-Hydroxy-6-(1-methyl-1H-pyrazol-4-yl)-3,4-dihydroquinolin-1(2H)-yl)-7-(3-hydroxypyrrolidin-1-yl)-1,3-dimethyl-1,6-naphthyridin-2(1H)-one] | < 50 nM | 2010 to 5000 nM |  |  |  |
| Cc1cc2c(N3CCN(C)c4cc(-c5cnn(C)c5)ncc43)cc(C3CCC(F)(F)CC3)cc2n(C)c1=O [Example 154] | 51 to 100 nM | 2010 to 5000 nM |  |  |  |

Second part, led by results:

| IC50 [1] | IC50 ([2]; BRD4 FL) | inhibition at 10 µM ([2]; BRD4 FL, compound at 10 μM) | inhibition at 10 µM ([1]; compound at 10 μM) | Structure (SMILES) | inhibition at 10 µM [2] |
| --- | --- | --- | --- | --- | --- |
| < 50 nM | 2010 to 5000 nM |  |  | CNC(=O)C1CCN(c2cc3c(cc2C#N)N(c2cc(OC)cc4c2cc(C)c(=O)n4C)CCC3)CC1 [Example 181] |  |
| 51 to 100 nM |  | 15% |  | COc1cc(N2CCN(C)c3ccc(S(=O)(=O)NC(=O)C(F)(F)F)cc32)c2cc(C)c(=O)n(C)c2c1 [Example 107] |  |
| < 50 nM | 2010 to 5000 nM |  |  | COc1cc(N2CCN(C)c3cc(N4CCC(C)(N)CC4)c(C#N)cc32)c2cc(C)c(=O)n(C)c2c1 [Example 29] |  |
| > 10 nM | 2010 to 5000 nM |  |  | Cc1cc2c(N3CCN(C)c4cc(-c5cnn(C)c5)ncc43)cc(OC(F)F)cc2n(C)c1=O [Example 129] |  |
| 51 to 100 nM | 2010 to 5000 nM |  |  | COc1cc(N2CCN(C3CC3)c3ccc(S(N)(=O)=O)cc32)c2cc(C)c(=O)n(C)c2c1 [Example 96] |  |
| 51 to 100 nM | 2010 to 5000 nM |  |  | Cc1cc2c(N3CCN(C)c4ccc(C#N)cc43)cc(OCC(=O)O)cc2n(C)c1=O [Example 82, 2-((5-(7-Cyano-4-methyl-3,4-dihydroquinoxalin-1(2H)-yl)-1,3-dimethyl-2-oxo-1,2-dihydroquinolin-7-yl)oxy)acetic acid] |  |
| > 10 nM | 2010 to 5000 nM |  |  | COc1cc(N2CCN(C)c3ccc(CC(=O)NO)cc32)c2cc(C)c(=O)n(C)c2c1 [Example 83, N-hydroxy-2-(4-(7-methoxy-1,3-dimethyl-2-oxo-1,2-dihydroquinolin-5-yl)-1-methyl-1,2,3,4-tetrahydroquinoxalin-6-yl)acetamide] |  |
| < 50 nM | 2010 to 5000 nM |  |  | CNC(=O)c1ccc(-c2cc3c(cc2C#N)N(c2cc(OC)cc4c2cc(C)c(=O)n4C)CCC3)cn1 [Example 183] |  |
| < 50 nM | 2010 to 5000 nM |  |  | CNC(=O)N1CCN(c2cc(OC)cc3c2cc(C)c(=O)n3C)c2cc(C#N)c(-c3cnn(C)c3)cc21 [Example 65, 6-Cyano-4-(7-methoxy-1,3-dimethyl-2-oxo-1,2-dihydroquinolin-5-yl)-N-methyl-7-(1-methyl-1H-pyrazol-4-yl)-3,4-dihydroquinoxaline-1(2H)-carboxamide] |  |
| < 50 nM | 2010 to 5000 nM |  |  | COc1cc(N2CCOc3cc(-c4cnn(C)c4)ncc32)c2cc(C)c(=O)n(C)c2c1 [Example 170] |  |
| < 50 nM |  | 24% |  | CNC(=O)C1CCN(c2cc3c(cc2C#N)N(c2cc(OC)cc4c2cc(C)c(=O)n4C)CCN3C)CC1 [Example 26] |  |
| < 50 nM | 2010 to 5000 nM |  |  | CNC(=O)c1ccc(-c2cc3c(cc2F)N(c2cc(OC)cc4c2cc(C)c(=O)n4C)CCN3C)cn1 [Example 31] |  |
| 51 to 100 nM |  | 50% |  | COc1cc(N2CCN(C)c3cc(-c4cnn(C)c4)ncc32)c2cc(C)c(=O)n(C)c2c1 [Example 116, 7-Methoxy-1,3-dimethyl-5-(1-methyl-7-(1-methyl-1H-pyrazol-4-yl)-2,3-dihydropyrido[3,4-b]pyrazin-4(1H)-yl)quinolin-2(1H)-one] |  |
| 51 to 100 nM | 2010 to 5000 nM |  |  | CNC(=O)C1CCN(c2cc3c(cc2F)N(c2cc(OC)cc4c2cc(C)c(=O)n4C)CCN3C)CC1 [Example 33] |  |
| < 50 nM | 2010 to 5000 nM |  |  | COc1cc(N2CCCc3cc(N4CCN(C(C)=O)CC4)c(C#N)cc32)c2cc(C)c(=O)n(C)c2c1 [Example 182] |  |
| > 10 nM | 2010 to 5000 nM |  |  | COc1cc(N2CCN(C)c3ccc(S(=O)(=O)Nc4ccccc4)cc32)c2cc(C)c(=O)n(C)c2c1 [Example 102] |  |
